From US20240101599A1, “PEPTIDE, CELL GROWTH PROMOTER, PROTEIN PRODUCTION PROMOTER, CULTURE MEDIUM, CELL GROWTH METHOD USING PEPTIDE, AND PROTEIN PRODUCTION METHOD USING PEPTIDE” (Maruhachi Muramatsu, Inc., priority 2020, published 2024)
Like-named read-outs stand apart in the source and are kept apart here. Peptide text beside a SMILES is read from it.

Columns and labels:
[1] = tested on: serum-free floating CHO DP-12; experiment: Protein production test on AGK and GPP in floating cell system; assay type: cell-based; settings: AGK 3.95 mM, GPP 4.40 mM + medium supplemented with vitamins and the like, ELISA
Procedure: Peptides having the sequences of Ala-Gly-Lys (AGK) and Gly-Pro-Pro (GPP) were synthesized to prepare peptide solutions of 5.53 mM of Ala-Gly-Lys (AGK) and 6.16 mM of Gly-Pro-Pro (GPP).
5 mL of each of a basal medium, a medium supplemented with vitamins and the like (basal medium +a component supplemented with vitamins and the like), and each peptide solution was added to each well of a 24-well (Deep well) cassette of Micro-24 Bioreactor System (manufactured by Nihon Pall Corporation) to perform culture overnight under the conditions of 37° C., pH 7, and 650 rpm. On the next day, pH calibration was performed, and thereafter 2 mL of the cell suspension prepared at 3.5×10^5 cells/mL was added to each well of the 24-well (Deep well) cassette, seeded such that the cell density of the floating cells was 1×10^5 cells/mL (7 mL/well), and cultured in the following evaluation medium under culture conditions of 37° C., pH 7, 650 rpm, and dissolved oxygen of 30%.
• Basal medium • Medium supplemented with vitamins and the like (basal medium+component supplemented with vitamins and the like) • AGK (3.95 mM)+medium supplemented with vitamins and the like • GPP (4.40 mM)+medium supplemented with vitamins and the like
As a culture medium, a basal medium in which 200 nM of methotrexate, 10 μg/mL of insulin, 5.5 μg/mL of transferrin, 6.7 ng/mL of sodium selenite, 10 μL/mL of Anti-Clumping Agent, and 10 μL/mL of 10% Pluronic F68 were blended in a DMEM/F12 culture medium (Gibco) was used.
As the floating cells used, serum-free floating CHO DP-12 obtained by acclimating CHO DP-12 (ATCC, Cat. No. CRL-12445) to serum-free flotation and subculturing using a 100 mL volume Erlenmeyer flask and with a shaking culture device (Custom Bio Shaker CO2-BR-43FL, TAITEC CORPORATION) under the culture conditions of 37° C., 5% CO2, and a stirring speed of 125 rpm was used.
After the third day of culture, 150 μL of the culture medium was recovered in a 1.5 mL tube from each well of the 24-well (Deep well) cassette to perform a centrifugation operation (5,000 rpm, for 5 minutes), and the supernatant was recovered to measure the amount of produced protein by ELISA.

CHO-K1 = experiment: Cell growth test of each peptide on coating agent for 3 days; assay type: cell-based; set-up: Viability, 1 / Viability, 2 / Viability, 3 / Viability, Average: unit not given here; settings: 2.1 mM Gly-Glu-Lys, poly-L-lysine coating; for Cells cell count, Average / Viability, Average: average n=3, 2.2 mM Asp-Gly-Pro; for Cells cell count, 1 / Viability, 1: replicate 1, 2.2 mM Asp-Gly-Pro; for Cells cell count, 2 / Viability, 2: replicate 2, 2.2 mM Asp-Gly-Pro; for Cells cell count, 3 / Viability, 3: replicate 3, 2.2 mM Asp-Gly-Pro
Procedure: Peptides having the sequences of Gly-Glu-Lys (GEK) and Asp-Gly-Pro (DGP) were synthesized to prepare each peptide solution such that the concentration was a concentration at which the cell number increased the most within a range of 0 mM to 5 mM. In other words, Gly-Glu-Lys (GEK) was adjusted to 21 mM, and Asp-Gly-Pro (DGP) was adjusted to 22 mM, and an amount of 1/10 of the total culture medium volume was added to each well immediately before the cell culture test such that final concentrations were 2.1 mM and 2.2 mM, respectively.
Poly-L-lysine (Peptide Institute, Inc., Poly-L-Lysine Hydrochloride, code: 3075) was prepared to 0.1 mg/mL, and 200 μL was dispensed into each well of a 24-well plate, which was left to stand in an incubator at 37° C. for 2 hours. After removing the residual liquid with an aspirator, rinsing was performed with distilled water, irradiation was performed with a UV lamp in a clean bench without a lid, and drying was performed overnight to sterilize. A cell suspension prepared such that CHO-K1 (RIKEN BioResource Research Center, cell number: RCB2330) was at 4×10^4 cells/mL was seeded in a 24-well plate at 500 μL/well and cultured in an incubator at 37° C. and 5% CO2 for 24 hours. As a culture medium, an MEMα culture medium (Gibco) containing 10% FBS was used.
After removing the culture medium from each well and washing with the MEMα culture medium (500 μL), 450 μL of a new MEMα culture medium was dispensed into each well, and each peptide solution (50 μL) was added (total 500 μL/well) to perform culture for 3 days. The cells were recovered to count the cell number. A similar culture test was performed using a system containing neither peptide nor FBS as a comparative sample.
The culture medium in each well was recovered in a 1.5 mL tube to be rinsed with 200 μL of MEMα, and the rinsed liquid was also recovered in the same 1.5 mL tube. Thereafter, 100 μL of trypsin was added and incubated for 3 minutes. After rinsing with 300 μL of MEMα containing 10% FBS, the rinsed liquid was also recovered in the same 1.5 mL tube. After rinsing again with 200 μL of MEMa containing 10% FBS, the rinsed liquid was also recovered in the same 1.5 mL tube.
A centrifugation operation was performed on the cells recovered in the 1.5 mL tube. The centrifugation conditions were 1,000 rpm, 10 minutes, and 4° C.
The supernatant was removed, and 300 μL of Cold PBS (phosphate buffered saline) was added to perform a centrifugation operation under the same conditions. The present operation was repeated twice.
Suspension was carried out with 100 μL of Binding Buffer, and 2 μL of propidium iodide (PI) was added and stirred in the tube to cause a reaction for 15 minutes at room temperature and with light shielding. Thereafter, the viable cell count and the viability were measured with a flow cytometer.
The above preparation, culture, and measurement were performed with n=3. Table 13 and FIG. 13 show the viable cell count in each peptide solution, and Table 14 and FIG. 14 show the cell viability in each peptide solution.

[2] = tested on: serum-free floating CHO DP-12; settings: GEK 2.05 mM, DGP 1.11 mM + medium supplemented with vitamins and the like; for Amount of protein produced: ELISA
Procedure: 5 mL of each of a DMEM/F12 basal medium, a medium supplemented with vitamins and the like (DMEM/F12 basal medium+a component supplemented with vitamins and the like), and each peptide solution was added to each well of a 24-well (Deep well) cassette of Micro-24 Bioreactor System (manufactured by Nihon Pall Corporation) to perform culture overnight under the conditions of 37° C., pH 7, and a stirring speed of 650 rpm. On the next day, pH calibration was performed, and thereafter 2 mL of the cell suspension prepared at 3.5×10^5 cells/mL was added to each well of the 24-well (Deep well) cassette, seeded such that the cell density of the floating cells was 1×10^5 cells/mL (7 mL/well), and cultured in the following evaluation medium under culture conditions of 37° C., pH 7, a stirring speed of 650 rpm, and dissolved oxygen of 30%.
• DMEM/F12 basal medium • Medium supplemented with vitamins and the like (basal medium+component supplemented with vitamins and the like) • GEK (2.05 mM)+medium supplemented with vitamins and the like • DGP (1.11 mM)+medium supplemented with vitamins and the like
As a culture medium, a DMEM/F12 basal medium in which 200 nM of methotrexate, 10 μg/mL of insulin, 5.5 μg/mL of transferrin, 6.7 ng/mL of sodium selenite, 10 μL/mL of Anti-Clumping Agent, and 10 μL/mL of 10% Pluronic F68 were blended in a DMEM/F12 culture medium (Gibco) was used.
After the third day of culture, 200 pμL of the culture medium was recovered in a 1.5 mL tube from each well of the 24-well (Deep well) cassette. 50 μL out of this was put in another 1.5 mL tube, and after adding 50 μL of trypan blue to sufficiently suspend, the viable cell count and the viability were measured using a cell counter (Countess II, manufactured by Life Technologies Corporation).
After the third day of culture, 150 μL out of 200 μL of the culture medium recovered from each well of the 24-well (Deep well) cassette was subjected to a centrifugation operation (5,000 rpm, for 5 minutes) in a 1.5 mL tube, and the supernatant was separately recovered to measure the amount of produced protein by ELISA.

Compound | Amount of protein produced ([1]; Day 3) [mg/L] | Amount of protein produced ([1]; Day 4) [mg/L] | Amount of protein produced ([1]; Day 5) [mg/L] | Amount of protein produced ([1]; Day 6) [mg/L] | Amount of protein produced ([1]; Day 7) [mg/L] | Cells cell count, Average (CHO-K1) | Viability, Average (CHO-K1) | Cells cell count, 1 (CHO-K1) | Viability, 1 (CHO-K1) | Cells cell count, 2 (CHO-K1) | Viability, 2 (CHO-K1) | Cells cell count, 3 (CHO-K1) | Viability, 3 (CHO-K1) | cell number ([2]; Day 0) | cell number ([2]; Day 3) | Amount of protein produced ([2]; Day 3) [mg/L] | cell number ([2]; Day 4) | Amount of protein produced ([2]; Day 4) [mg/L] | cell number ([2]; Day 5) | Amount of protein produced ([2]; Day 5) [mg/L] | further results
C[C@H](N)C(=O)NCC(=O)N[C@@H](CCCCN)C(=O)O [AGK, Ala-Gly-Lys] (H-Ala-Gly-Lys-OH; N-terminus and C-terminus assumed) | 17.74 | 31.36 | 49.43 | 65.58 | 73.46 |  |  |  |  |  |  |  |  |  |  |  |  |  |  |  | 
NCCCC[C@H](NC(=O)[C@H](CCC(=O)O)NC(=O)CN)C(=O)O [GEK, Gly-Glu-Lys] (H-Gly-Glu-Lys-OH; N-terminus and C-terminus assumed) |  |  |  |  |  | 19.35 ×10^4 | 94.5 | 17.94 ×10^4 | 94.7 | 19.72 ×10^4 | 95.1 | 20.39 ×10^4 | 93.8 | 0.10 ×10^6cells/ml | 1.73 ×10^6cells/ml | 26.32 | 2.40 ×10^6cells/ml | 54.96 | 2.65 ×10^6cells/ml | 75.54 | cell number ([2]; Day 6): 2.64 ×10^6cells/ml; Amount of protein produced ([2]; Day 6): 98.46 mg/L; cell number ([2]; Day 7): 3.05 ×10^6cells/ml; Amount of protein produced ([2]; Day 7): 127.08 mg/L
Asp-Gly-Pro [DGP] |  |  |  |  |  | 11.99 ×10^4 | 78.5 | 11.69 ×10^4 | 77.9 | 10.47 ×10^4 | 75.6 | 13.82 ×10^4 | 82.0 | 0.10 ×10^6cells/ml | 1.15 ×10^6cells/ml | 19.86 | 2.52 ×10^6cells/ml | 43.99 | 2.58 ×10^6cells/ml | 63.65 | Viability ([2]; Day 0): 98.0%; Viability ([2]; Day 3): 97.50%; Viability ([2]; Day 4): 97.50%; Viability ([2]; Day 5): 94.50%; Viability ([2]; Day 6): 87.00%; cell number ([2]; Day 6): 3.50 ×10^6cells/ml; Amount of protein produced ([2]; Day 6): 82.54 mg/L; Viability ([2]; Day 7): 81.50%; cell number ([2]; Day 7): 3.01 ×10^6cells/ml; Amount of protein produced ([2]; Day 7): 104.75 mg/L
Gly-Pro-Pro [GPP] | 14.95 | 32.30 | 52.53 | 67.01 | 80.86 |  |  |  |  |  |  |  |  |  |  |  |  |  |  |  | 
